Experimental data reported in US6087383A (Bristol-Myers Squibb Company, priority 1998, dated 2000).
Counter-ions that a name gives are not always drawn. Like-named read-outs stand apart in the source and are kept apart here.

Tests used:
[1] = Equilibration of excess salt in water: suspension pH and identity of undissolved solid phase; format: physicochemical; details: for pH of the suspension after equilibration / identity of undissolved solid phase after equilibration in water: excess salt in water; for pH of the suspension after equilibration: at least 24 hours (24±3° C. for methane sulfonate and hydrochloride); for identity of undissolved solid phase after equilibration in water: thermal and/or elemental analysis
Excerpt: (§1) In general, conversion of salts to the unionized form or vice versa can be explained on the basis of pH-solubility theory. […] At pH<pHmax the equilibrium solid converts to the corresponding salt form. The term "equilibrium solid phase" refers to the undissolved or excess solid in a suspension of the compound in water after sufficient equilibration time. When a salt of a weak base is equilibrated in water in an amount exceeding its solubility limit (i.e., a suspension of the salt in water), the resulting pH of the suspension may fall on either side of the pHmax depending on the strength of the acid among other factors. When the resulting pH is greater than the pHmax, the suspended solid converts to the free base.
The undissolved solids from these suspensions were isolated, air-dried, and characterized.

[2] = 40° C./75% RH; for changes in thermal behavior: as little as two weeks
Method: The term physical stability indicates the ability of the salt form to retain its crystal structure (including solvents of crystallization, if any) under storage/stress conditions. Significant changes in the physical nature of the salt form as indicated by thermal methods such as differential scanning calorimetry are undesirable. […] The solid line represents the unstressed material. The dotted line represents the material stressed at 40° C./75% RH for 9 months. […] The solid line represents the unstressed material. The dotted line represents the material stressed at 40° C./75% RH for two weeks. […] The solid line represents the unstressed material. […] The solid line represents the unstressed material. The dotted line represents the material stressed at 40° C./75% RH for two weeks.

[3] = Aqueous solubility at 24±3° C.; details: water
Excerpt: For development of pharmaceutical formulations, particularly oral dosage forms, the active ingredient must have sufficient oral bioavailability.

[4] = Crystal form characterisation (hygroscopicity); format: physicochemical; details: crystals obtained from isopropanol
Excerpt: They are now referred to as Type-II crystals. The Type-I crystals appear to be an anhydrous/desolvated crystalline material while the Type-II crystals are a hydrated, hygroscopic crystalline form.

[5] = Excerpt: as §1
[6] = Oral bioavailability in animals; format: in vivo; details: crystalline free base form as a suspension in water or oil
[7] = pH 1.8
[8] = dog, in vivo
in vivo = details: dog, po

SMILES | pH of the suspension after equilibration [1] | identity of undissolved solid phase after equilibration in water [1] | changes in thermal behavior [2] | solubility in water [7] | further results
COC(=O)N[C@H](C(=O)N[C@@H](Cc1ccccc1)[C@@H](O)CN(Cc1ccc(-c2ccccn2)cc1)NC(=O)[C@@H](NC(=O)OC)C(C)(C)C)C(C)(C)C [hydrochloride] | 2.1±0.1 | identified as the free base | significant changes in their thermal behavior | – | –
COC(=O)N[C@H](C(=O)N[C@@H](Cc1ccccc1)[C@@H](O)CN(Cc1ccc(-c2ccccn2)cc1)NC(=O)[C@@H](NC(=O)OC)C(C)(C)C)C(C)(C)C [benzenesulfonate] | – | – | – | – | solubility [3]: 1 to 3 mg/mL
COC(=O)N[C@H](C(=O)N[C@@H](Cc1ccccc1)[C@@H](O)CN(Cc1ccc(-c2ccccn2)cc1)NC(=O)[C@@H](NC(=O)OC)C(C)(C)C)C(C)(C)C [Type-II crystals] | – | – | – | – | hygroscopicity [4]: hygroscopic
COC(=O)N[C@H](C(=O)N[C@@H](Cc1ccccc1)[C@@H](O)CN(Cc1ccc(-c2ccccn2)cc1)NC(=O)[C@@H](NC(=O)OC)C(C)(C)C)C(C)(C)C [methanesulfonate] | 2.1±0.1 | identified as the free base | significant changes in their thermal behavior | – | –
COC(=O)N[C@H](C(=O)N[C@@H](Cc1ccccc1)[C@@H](O)CN(Cc1ccc(-c2ccccn2)cc1)NC(=O)[C@@H](NC(=O)OC)C(C)(C)C)C(C)(C)C [Compound I, [3S-(3R*, 8'R*, 9'R*, 12R*)]-3,12-bis(1,1-dimethylethyl)-8-hydroxy-4,11-dioxo-9-(phenylmethyl)-6-[[4-(2-pyridinyl)phenylmethyl]-2,5,6,10,13-pentaazatetradecanedioic] acid, dimethyl ester] | – | – | – | less than 1 mg/mL | pHmax (pH at which the compound exhibits the highest solubility) [5]: approximately 1.2; oral bioavailability [6]: poor oral bioavailability; oral bioavailability [8]: minimal oral bioavailability
COC(=O)N[C@H](C(=O)N[C@@H](Cc1ccccc1)[C@@H](O)CN(Cc1ccc(-c2ccccn2)cc1)NC(=O)[C@@H](NC(=O)OC)C(C)(C)C)C(C)(C)C [bisulfate salt] | 1.9±0.2 | hydrated form of 2:1 salt of the free base form and sulfuric acid | – | 4 to 5 mg/mL | solid state transformation when suspended in water ([1]; suspension in water): prevents the conversion to the free base; changes in thermal behavior (differential scanning calorimetry) ([2]; 9 months, vs unstressed sample (2-8° C. closed container)): no significant changes in the thermal behavior; bioavailability (in vivo): ~20%
